Like-named read-outs stand apart in the source and are kept apart here.
Tests used:
[1] = for Solubility / Solubility (mg/mL): room temperature; for Solubility (mg/mL): listed as Bu
[2] = test system: erythrocytes; experiment: Hemolysis studies in vitro; type: cell-based; conditions: drug concentrations of 100 μg/mL or more
Description: The hemolytic potential of the final use-formulation should also be minimal, since the terminal use formulation/infusate contain Bu and PEG as the only significant solutes to be infused, i.e. this is basically D5W with a moderate amount of PEG (40%, v/v) as its main additive. The procedure of Parthasarathy et al. was used to examine the hemolytic potential of a few selected formulations, and the LD50 values of the most optimal formulation was constructed as previously described (Parthasarathy et al., 1994). Briefly, heparinized blood was mixed with an equal volume of Alsever's solution (Alsever and Ainslie, 1941). This mixture was washed twice in PBS, and a 10% (volume per volume, v/v) erythrocyte/PBS solution was then prepared and mixed with increasing amounts of PEG (essentially the VE-acetone/PEG prototype vehicle) with or without addition of D5W and with or without Bu. The resulting mixtures were incubated for 4 hours at 37° C. […] The release of hemoglobin in the supernatant (i.e., hemolysis) was determined spectrophotometrically at a wavelength of 550 nm. Maximum lysis was measured against a reference erythrocyte solution that had been lysed by hypotonic shock. The hemolytic potential of the vehicle and the complete final use-formulation (Bu/VE-acetone/PEG/D5W) was evaluated as described (Parthasarathy et al., 1984). […]

## CS(=O)(=O)OCCCCOS(C)(=O)=O [Busulfan, 1,4-butanediol dimethanesulfonate]
[1]; Solvent: DMA
  Solubility: 49.2 mg/mL
  Solubility (mg/mL): more than 15 mg/mL
[1]; Solvent: DMSO
  Solubility: 77.9 mg/mL
  Solubility (mg/mL): more than 15 mg/mL
[1]; after mixing with PEG and extraction of the acetone
  concentration of Bu stably bound in PEG alone: 5000 to 10000 µg/mL
[2]
  Bu-dependent lysis: barely exceeded background levels

— patent US10028949B2, “Parenteral formulations of lipophilic pharmaceutical agents and methods for preparing and using the same” (priority 2011, dated 2018)
